Source: patent US9708336B2, “Metallo-beta-lactamase inhibitors” (priority 2014, dated 2017)
Where two headings read alike, the source gives them in different places. One block for each molecule: values may come before it.

Legend:
[1] = target: NDM-1 (Klebsiella pneumoniae, UniProt C7C422); experiment: biochemical; type: biochemical; conditions: read-out: NDM-1 IC50
[2] = target: IMP-1 (Serratia marcescens, UniProt P52699); experiment: biochemical; type: biochemical; conditions: read-out: IMP-1 IC50
[3] = target: VIM-1 (Pseudomonas aeruginosa (strain ATCC 15692 / DSM 22644 / CIP 104116 / JCM 14847 / LMG 12228 / 1C / PRS 101 / PAO1), UniProt A0A0F7KYQ8); experiment: Enzyme activity: determination of IC50, fluorescence assay with CCF2-FA substrate (VIM-1); type: biochemical
[4] = test system: Escherichia coli expressing NDM-1 (CLB30016); experiment: Antibiotic potentiation activity: synergistic concentration (MITC95) with imipenem, OD600 growth; type: cell-based; conditions: for Escherichia coli expressing NDM-1 (CLB 30016) MITC95: concentration giving 95% inhibition of bacterial growth
Experimental: (§1) Antibiotic Potentiation Activity: Determination of Synergistic Concentration
(§2) The bacterial strains tested included the clinical strains Escherichia coli expressing NDM-1 (CLB30005, CLB30016), Serratia marcescens expressing IMP-1 (CL5741), and Klebsiella pneumoniae expressing VIM-1 (IHMA599644) Inhibitor activity was measured in the presence and absence of imipenem in a 384-well microplate.
(§3) The clinical strains CLB30016, CL5741 and IHMA599644 were grown on trypticase soy agar containing 5% sheep's blood. The clinical strain CLB30005 was grown on Mueller Hinton broth agar containing 8 ug/ml imipenem. The bacteria on agar plates were incubated at 35° C. with humidity overnight. The following day, individual colonies from each clinical strain were picked and resuspended in 5 ml saline to attain an OD600 of 0.14, 0.11, 0.15 and 0.13, for CLB30005, CLB30016, CL5741 and IHMA599644, respectively. These were further diluted 1:100 into 1.1×CAMHB and used to inoculate the test wells as described below.
(§4) Imipenem in 10 mM 3-(N-morpholino)propanesulfonic acid (MOPS, pH 7) was stored in single use aliquots at −80° C. […] On the day of the assay, 4 μl of antibiotic was added to 45 ul of bacteria followed by 1 μl of test compound and mixed by pipetting and with an orbital shaker. The concentration of antibiotic used in the assay was 4 μg/ml, or optionally 1 μg/ml. Microplates were covered and incubated at 35° C. for 22 hours to 24 hours. At the end of the incubation, absorbance was determined using a spectrophotometer.

[5] = test system: Klebsiella pneumoniae expressing VIM-1 (IHMA599644); experiment: as above; type: cell-based; conditions: for Klebsiella pneumoniae expressing VIM-1 (IHMA 599644) MITC95: concentration giving 95% inhibition of bacterial growth
Experimental: as §1, §2, §3, §4

[6] = test system: Serratia marcescens expressing IMP-1 (CL5741); experiment: as above; type: cell-based; conditions: for Serratia marcescens expressing IMP-1 (CL5741) MITC95: concentration giving 95% inhibition of bacterial growth
Experimental: as §1, §2, §3, §4

[7] = NDM-1 enzyme, CCF2-FA fluorescence assay
[8] = IMP-1 enzyme, CCF2-FA fluorescence assay
[9] = NDM-1 enzyme, CCF2-FA substrate
[10] = IMP-1 enzyme, CCF2-FA substrate
[11] = (CLB30016, NDM-1), 95% growth inhibition
[12] = Klebsiella pneumoniae IHMA599644 (VIM-1), 95% growth inhibition
[13] = Serratia marcescens CL5741 (IMP-1), 95% growth inhibition
[14] = fluorescence assay with CCF2-FA substrate
[15] = CLB30016 (NDM-1), 95% inhibition of bacterial growth
[16] = IHMA599644 (VIM-1), 95% inhibition of bacterial growth
[17] = CL5741 (IMP-1), 95% inhibition of bacterial growth
[18] = Escherichia coli expressing NDM-1 (CLB30016), 95% growth inhibition
[19] = Klebsiella pneumoniae expressing VIM-1 (IHMA599644), 95% growth inhibition
[20] = Serratia marcescens expressing IMP-1 (CL5741), 95% growth inhibition
[21] = fluorescence assay with CCF2-FA substrate; read-out: VIM-1 IC50

Chain of NDM-1 (C7C422 whole entry, looked up, species assumed): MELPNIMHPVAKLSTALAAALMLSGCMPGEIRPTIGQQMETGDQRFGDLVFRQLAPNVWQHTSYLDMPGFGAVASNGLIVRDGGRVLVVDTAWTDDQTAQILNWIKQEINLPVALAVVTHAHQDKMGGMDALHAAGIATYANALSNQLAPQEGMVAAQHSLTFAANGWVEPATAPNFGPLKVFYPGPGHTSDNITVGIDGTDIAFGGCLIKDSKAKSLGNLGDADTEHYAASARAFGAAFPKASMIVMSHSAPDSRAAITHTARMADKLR
Chain of IMP-1 (P52699 whole entry, looked up): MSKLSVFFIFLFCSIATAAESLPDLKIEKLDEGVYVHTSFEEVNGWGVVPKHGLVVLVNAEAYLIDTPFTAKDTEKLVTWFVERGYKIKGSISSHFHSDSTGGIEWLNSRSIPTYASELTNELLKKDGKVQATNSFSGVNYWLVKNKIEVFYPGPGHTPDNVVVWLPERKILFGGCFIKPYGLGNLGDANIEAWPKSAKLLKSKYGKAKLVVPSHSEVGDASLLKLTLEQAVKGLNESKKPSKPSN

IC50 [1, 7]: 0.591 µM
IC50 [2, 8]: 112 µM
IC50 ([3]; VIM-1 enzyme, CCF2-FA fluorescence assay; read-out: VIM-1 IC50): 156 µM
SMILES: Cc1cc(-c2nnn[nH]2)c(S(N)(=O)=O)cc1C [Example 252, 4,5-Dimethyl-2-(2H-tetrazol-5-yl)benzenesulfonamide]

SMILES: NS(=O)(=O)c1c(CC2CCNCC2)ccc(-c2ccc(C3CCNC3)cc2)c1-c1nn[nH]n1 (stereo not drawn) [Example 588, 4-(piperidin-4-ylmethyl)-4′-(pyrrolidin-3-yl)-2-(2H-tetrazol-5-yl)-[1,1′-biphenyl]-3-sulfonamide]
IC50 [1, 9]: 0.00627 µM
IC50 [2, 10]: 0.0288 µM
Escherichia coli MITC95 [4, 11]: 1.563 µM
Klebsiella pneumoniae MITC95 [5, 12]: 1.563 µM
Serratia marcescens MITC95 [6, 13]: 3.125 µM

SMILES: NS(=O)(=O)c1c(C(F)(F)F)ccc(-c2ccc(C3CN(CC4CCNCC4)C3)cc2)c1-c1nnn[nH]1 [Example 804, 4′-[1-(piperidin-4-ylmethyl)azetidin-3-yl]-2-(1H-tetrazol-5-yl)-4-(trifluoromethyl)biphenyl-3-sulfonamide]
IC50 [1, 14]: 0.00385 µM
IC50 [2, 14]: 0.00578 µM
Escherichia coli MITC95 [4, 15]: 3.125 µM
Klebsiella pneumoniae MITC95 [5, 16]: 50 µM
Serratia marcescens MITC95 [6, 17]: 6.25 µM

SMILES: NS(=O)(=O)c1c(C(F)(F)F)ccc(-c2ccc(C3CCNCC3)cc2)c1-c1nn[nH]n1 [Example 269, 4′-(piperidin-4-yl)-2-(2H-tetrazol-5-yl)-4-(trifluoromethyl)-[1,1′-biphenyl]-3-sulfonamide]
IC50 [1, 7]: 0.00121 µM
IC50 [2, 8]: 0.00143 µM
Escherichia coli MITC95 [4, 18]: 0.7383 µM
Klebsiella pneumoniae MITC95 [5, 19]: 1.969 µM
Serratia marcescens MITC95 [6, 20]: 0.3125 µM

SMILES: NS(=O)(=O)c1c(C(F)(F)F)ccc(-c2ccc3nccn3c2)c1-c1nnn[nH]1 [Example 484, 3-(Imidazo[1,2-a]pyridin-6-yl)-2-(1H-tetrazol-5-yl)-6-(trifluoromethyl)benzenesulfonamide]
IC50 [1, 7]: 0.00122 µM
IC50 [2, 8]: 0.00658 µM
Escherichia coli MITC95 [4, 18]: 0.25 µM
Klebsiella pneumoniae MITC95 [5, 19]: 1.708 µM
Serratia marcescens MITC95 [6, 20]: 0.3828 µM

SMILES: NS(=O)(=O)c1cccc(-c2ccc(NC3CCNC3)nc2)c1-c1nnn[nH]1 (stereo not drawn) [Example 628, 3-[6-(pyrrolidin-3-ylamino)-3-pyridyl]-2-(1H-tetrazol-5-yl)benzenesulfonamide]
IC50 [1, 9]: 0.045 µM
IC50 [2, 10]: 0.65 µM
Escherichia coli MITC95 [4, 11]: 0.9766 µM
Klebsiella pneumoniae MITC95 [5, 12]: 12.5 µM
Serratia marcescens MITC95 [6, 13]: 12.5 µM

SMILES: CN1CCN(c2cc(-c3cccc(S(N)(=O)=O)c3-c3nnn[nH]3)ccn2)CC1 [Example 116, 3-(2-(4-methylpiperazin-1-yl)pyridin-4-yl)-2-(1H-tetrazol-5-yl)benzenesulfonamide]
IC50 [1, 14]: 0.00543 µM
IC50 [2, 14]: 0.226 µM
Escherichia coli expressing NDM-1 (CLB 30016) MITC95 [4]: 1.563 µM
Klebsiella pneumoniae expressing VIM-1 (IHMA 599644) MITC95 [5]: 200 µM
Serratia marcescens expressing IMP-1 (CL5741) MITC95 [6]: 9.375 µM

SMILES: NS(=O)(=O)c1c(C(F)(F)F)ccc(C2CCC2)c1-c1nnn[nH]1 [Example 492, 3-cyclobutyl-2-(1H-tetrazol-5-yl)-6-(trifluoromethyl)benzenesulfonamide]
IC50 [1, 9]: 0.0173 µM
IC50 [2, 10]: 0.016 µM
Escherichia coli MITC95 [4, 11]: 3.125 µM
Klebsiella pneumoniae MITC95 [5, 12]: 12.5 µM
Serratia marcescens MITC95 [6, 13]: 0.3906 µM

SMILES: NC1CCC(N2CC(c3ccc(-c4ccc(C(F)(F)F)c(S(N)(=O)=O)c4-c4nnn[nH]4)cc3)C2)CC1 (stereo not drawn) [Example 809, 4′-[1-(4-aminocyclohexyl)azetidin-3-yl]-2-(1H-tetrazol-5-yl)-4-(trifluoromethyl)biphenyl-3-sulfonamide]
IC50 [1, 14]: 0.00402 µM
IC50 [2, 14]: 0.0114 µM
Escherichia coli MITC95 [4, 15]: 3.125 µM
Klebsiella pneumoniae MITC95 [5, 16]: 50 µM
Serratia marcescens MITC95 [6, 17]: 6.25 µM

SMILES: CC(C(=O)O)N(C)Cc1ccc(-c2cccc(S(N)(=O)=O)c2-c2nnn[nH]2)cc1 (stereo not drawn) [Example 367, N-methyl-N-{[3′-sulfamoyl-2′-(1H-tetrazol-5-yl)biphenyl-4-yl]methyl}alanine]
IC50 [1, 7]: 0.00753 µM
IC50 [2, 8]: 0.0603 µM
Escherichia coli MITC95 [4, 18]: 3.125 µM
Klebsiella pneumoniae MITC95 [5, 19]: 200 µM
Serratia marcescens MITC95 [6, 20]: 3.125 µM

SMILES: NS(=O)(=O)c1nccc(NCc2ccccc2)c1-c1nnn[nH]1 [Example 235, 4-(benzylamino)-3-(1H-tetrazol-5-yl)pyridine-2-sulfonamide]
IC50 [1, 14]: 0.142 µM
IC50 [2, 14]: 3.44 µM
Escherichia coli expressing NDM-1 (CLB 30016) MITC95 [4]: 12.5 µM
Klebsiella pneumoniae expressing VIM-1 (IHMA 599644) MITC95 [5]: >200 µM
Serratia marcescens expressing IMP-1 (CL5741) MITC95 [6]: 200 µM

SMILES: NS(=O)(=O)c1c(C(F)(F)F)ccc(N2CC3(CCNCC3)C2)c1-c1nnn[nH]1 [Example 782]
IC50 ([3]; read-out: VIM-1 IC50; fluorescence assay with CCF2-FA substrate): 0.0095 µM

SMILES: NC1CCC(Cc2ccc(-c3ccc(C4CCNCC4)cc3)c(-c3nn[nH]n3)c2S(N)(=O)=O)CC1 (stereo not drawn) [Example 463, 4-(((1r,4r)-4-aminocyclohexyl)methyl)-4′-(piperidin-4-yl)-2-(2H-tetrazol-5-yl)-[1,1′-biphenyl]-3-sulfonamide]
IC50 [2, 8]: 0.00658 µM
Escherichia coli MITC95 [4, 18]: 0.7813 µM
Klebsiella pneumoniae MITC95 [5, 19]: 0.7813 µM
Serratia marcescens MITC95 [6, 20]: 0.1953 µM

SMILES: NCCNc1ccc(-c2cccc(S(N)(=O)=O)c2-c2nnn[nH]2)cn1 [Example 634, 3-[6-(2-aminoethylamino)-3-pyridyl]-2-(1H-tetrazol-5-yl)benzenesulfonamide]
IC50 [1, 9]: 0.0141 µM
IC50 [2, 10]: 1.28 µM
Escherichia coli MITC95 [4, 11]: 0.5859 µM
Klebsiella pneumoniae MITC95 [5, 12]: 6.25 µM
Serratia marcescens MITC95 [6, 13]: 18.75 µM

SMILES: NS(=O)(=O)c1cccc(C2CCN(C(=O)C3(c4ccccc4)CC3)CC2)c1-c1nn[nH]n1 [Example 176, 3-(1-(1-phenylcyclopropanecarbonyl)piperidin-4-yl)-2-(2H-tetrazol-5-yl)benzenesulfonamide]
IC50 [1, 14]: 0.00643 µM
IC50 [2, 14]: 0.0728 µM
IC50 [3, 21]: 0.148 µM

IC50 [1, 14]: 0.0523 µM
IC50 [2, 14]: 0.262 µM
IC50 [3, 21]: 1.91 µM
SMILES: NS(=O)(=O)c1cccc(-c2ccc(C(=O)NC3CCOC3)cc2)c1-c1nn[nH]n1 (stereo not drawn) [Example 2, 3′-sulfamoyl-N-(tetrahydrofuran-3-yl)-2′-(2H-tetrazol-5-yl)biphenyl-4-carboxamide]

SMILES: NS(=O)(=O)c1cccc(-c2ccc3ncnn3c2)c1-c1nnn[nH]1 [Example 111, 3-([1,2,4]triazolo[1,5-a]pyridin-6-yl)-2-(1H-tetrazol-5-yl)benzenesulfonamide]
Escherichia coli expressing NDM-1 (CLB 30016) MITC95 [4]: 1.172 µM
Klebsiella pneumoniae expressing VIM-1 (IHMA 599644) MITC95 [5]: 18.75 µM
Serratia marcescens expressing IMP-1 (CL5741) MITC95 [6]: 9.375 µM

SMILES: NS(=O)(=O)c1cccc(-c2ccc(CO)cc2)c1-c1nnn[nH]1 [Example 26, 4′-(hydroxymethyl)-2-(1H-tetrazol-5-yl)biphenyl-3-sulfonamide]
IC50 [1, 14]: 0.00243 µM
IC50 [2, 14]: 0.0462 µM
IC50 [3, 21]: 0.0584 µM
Klebsiella pneumoniae expressing VIM-1 (IHMA 599644) MITC95 [5]: 50 µM

SMILES: NS(=O)(=O)c1nccc(N2CCC(CN3CCOCC3)CC2)c1-c1nnn[nH]1 [Example 224, 4-[4-(morpholin-4-ylmethyl)piperidin-1-yl]-3-(1H-tetrazol-5-yl)pyridine-2-sulfonamide]
IC50 [1, 14]: 0.247 µM
Escherichia coli expressing NDM-1 (CLB 30016) MITC95 [4]: 4.688 µM
Klebsiella pneumoniae expressing VIM-1 (IHMA 599644) MITC95 [5]: 200 µM
Serratia marcescens expressing IMP-1 (CL5741) MITC95 [6]: 18.75 µM

SMILES: NC1CCC(Cc2ccc(-c3ccc(C4CCNCC4)cc3)c(-c3nn[nH]n3)c2S(N)(=O)=O)CC1 (stereo not drawn) [Example 455, 4-(((1s,4s)-4-aminocyclohexyl)methyl)-4′-(piperidin-4-yl)-2-(2H-tetrazol-5-yl)-[1,1′-biphenyl]-3-sulfonamide]
IC50 [2, 8]: 0.0063 µM
Escherichia coli MITC95 [4, 18]: 0.5859 µM
Klebsiella pneumoniae MITC95 [5, 19]: 1.563 µM
Serratia marcescens MITC95 [6, 20]: 0.3906 µM
